Source: patent US9278922B2 (ABBVIE INC., priority 2009, dated 2016)

Tested on: HCV 1b-Con-1 replicon
Assay: HCV 1b-Con-1 replicon assay (luciferase reporter gene, HuH-7 cells)
Format: cell-based, Hepatitis C virus (HCV) genotype 1b-Con1
Conditions: Hepatitis C virus, Huh-7, luciferase reporter gene activity in the replicon, in the presence of 5% FBS

`COC(=O)N[C@H](C(=O)N1CCC[C@H]1c1nc2ccc(CN(Cc3ccc4nc([C@@H]5CCCN5C(=O)[C@@H](NC(=O)OC)C(C)(C)O)[nH]c4c3)c3ccccc3)cc2[nH]1)C(C)(C)O` [Example 34, methyl [(1S)-2-hydroxy-1-{[(2S)-2-(6-{[({2-[(2S)-1-{(2S)-3-hydroxy-2-[(methoxycarbonyl)amino]-3-methylbutanoyl}pyrrolidin-2-yl]-1H-benzimidazol-6-yl}methyl)(phenyl)amino]methyl}-1H-benzimidazol-2-yl)pyrrolidin-1-yl]carbonyl}-2-methylpropyl]carbamate] and `COC(=O)N[C@H](C(=O)N1CCC[C@H]1C(=O)Nc1ccc(CN(Cc2ccc(NC(=O)[C@@H]3CCCN3C(=O)[C@@H](NC(=O)OC)C(C)(C)O)cc2)c2ccccc2)cc1)C(C)(C)O` [Example 28, dimethyl [(phenylimino)bis{methanediylbenzene-4,1-diylcarbamoyl(2S)pyrrolidine-2,1-diyl[(2S)-3-hydroxy-3-methyl-1-oxobutane-1,2-diyl]}]biscarbamate] cannot be ordered by EC50: < 1 nM for the first, < 1 nM for the second.

Compared with `COC(=O)N[C@H](C(=O)N1CCC[C@H]1C(=O)Nc1ccc(CN(Cc2ccc(NC(=O)[C@@H]3CCCN3C(=O)[C@@H](NC(=O)OC)C(C)(C)C)cc2)C2CCCC2)cc1)C(C)(C)C` [Example 29, dimethyl[(cyclopentylimino)bis{methanediylbenzene-4,1-diylcarbamoyl(2S)pyrrolidine-2,1-diyl[(2S)-3,3-dimethyl-1-oxobutane-1,2-diyl]}]biscarbamate], `COC(=O)N[C@H](C(=O)N1CCC[C@H]1C(=O)Nc1ccc(CN(Cc2ccc(NC(=O)[C@@H]3CCCN3C(=O)[C@@H](NC(=O)OC)C(C)(C)C)cc2)c2ccc(F)cc2)cc1)C(C)(C)C` [Example 13, Dimethyl (2S,2′S)-1,1′-((2S,2′S)-2,2′-(4,4′-(4-fluorophenylazanediyl)bis(methylene)bis(4,1-phenylene)bis(azanediyl))bis(oxomethylene)bis(pyrrolidine-2,1-diyl))bis(3,3-dimethyl-1-oxobutane-2,1-diyl)dicarbamate] is lower in EC50: 100 to 250 nM for the first, < 1 nM for the second. The second is the more potent here.

`COC(=O)N[C@H](C(=O)N1CCC[C@H]1C(=O)Nc1ccc(CN(Cc2ccc(NC(=O)[C@@H]3CCCN3C(=O)[C@@H](c3ccccc3)N(C)C)cc2)c2ccccc2)cc1)C(C)(C)C` [Example 10, Methyl (S)-1-((S)-2-(4-(((4-((S)-1-((R)-2-(dimethylamino)-2-phenylacetyl)pyrrolidine-2-carboxamido)benzyl)(phenyl)amino)methyl)phenylcarbamoyl)pyrrolidin-1-yl)-3,3-dimethyl-1-oxobutan-2-ylcarbamate] and `COC(=O)N[C@H](C(=O)N1CCC[C@H]1C(=O)Nc1ccc(CN(Cc2ccc(NC(=O)[C@@H]3CCCN3C(=O)[C@H](N)c3ccccc3)cc2)c2ccccc2)cc1)C(C)(C)C` [Example 77, N-(methoxycarbonyl)-3-methyl-L-valyl-N-[4-({[4-({1-[(2R)-2-amino-2-phenylacetyl]-L-proly}amino)benzyl](phenyl)amino}methyl)phenyl]-L-prolinamide] cannot be ordered by EC50: < 1 nM for the first, < 1 nM for the second.

`O=C(Nc1ccc(CN(Cc2ccc(NC(=O)[C@@H]3CCCN3C(=O)[C@@H](c3ccccc3)N3CCCCC3)cc2)c2ccc(F)cc2)cc1)[C@@H]1CCCN1C(=O)[C@@H](c1ccccc1)N1CCCCC1` [Example 92, (2S,2′S)-N,N′-{[(4-fluorophenyl)imino]bis(methanediylbenzene-4,1-diyl)}bis{1-[(2R)-2-phenyl-2-piperidin-1-ylacetyl]pyrrolidine-2-carboxamide}] and `O=C(Nc1ccc(CN(Cc2ccc(NC(=O)[C@@H]3CCCN3C(=O)C(c3ccccc3)N3CC[C@H](F)C3)cc2)c2ccc(F)cc2)cc1)[C@@H]1CCCN1C(=O)C(c1ccccc1)N1CC[C@H](F)C1` (stereo partly drawn) [Example 119, (2S,2′S)-N,N′-{[(4-fluorophenyl)imino]bis(methanediylbenzene-4,1-diyl)}bis(1-{[(3S)-3-fluoropyrrolidin-1-yl](phenyl)acetyl}pyrrolidine-2-carboxamide)] cannot be ordered by EC50: < 1 nM for the first, < 1 nM for the second.

First: COC(=O)N[C@H](C(=O)N1C[C@H](F)C[C@H]1C(=O)Nc1ccc(CN(Cc2ccc(NC(=O)[C@@H]3C[C@@H](F)CN3C(=O)[C@@H](NC(=O)OC)C(C)(C)C)cc2)c2ccc(F)cc2)cc1)C(C)(C)C [Example 103]
Second: COC(=O)N[C@H](C(=O)N1CC[C@H]1C(=O)Nc1ccc(CN(Cc2ccc(NC(=O)[C@@H]3CCN3C(=O)[C@@H](NC(=O)OC)C(C)(C)C)cc2)c2ccc(F)cc2)cc1)C(C)(C)C [Example 100, methyl [(1S)-1-{[(2S)-2-{[4-({(4-fluorophenyl)[4-({[(2S)-1-{(2S)-2-[(methoxycarbonyl)amino]-3,3-dimethylbutanoyl}azetidin-2-yl]carbonyl}amino)benzyl]amino}methyl)phenyl]carbamoyl}azetidin-1-yl]carbonyl}-2,2-dimethylpropyl]carbamate]
The EC50 of the first is lower: < 1 nM for the first, 1 to 10 nM for the second.

`CCN(CC)[C@@H](C(=O)N1CCC[C@H]1c1nc2cc(CN(Cc3ccc4[nH]c([C@@H]5CCCN5C(=O)[C@@H](c5ccccc5)N(CC)CC)nc4c3)c3ccccc3)ccc2[nH]1)c1ccccc1` [Example 65, N,N-bis[(2-{(2S)-1-[(2R)-2-(diethylamino)-2-phenylacetyl]pyrrolidin-2-yl}-1H-benzimidazol-5-yl)methyl]aniline] and `CCN(CC)[C@@H](C(=O)N1CCC[C@H]1C(=O)Nc1ccc(CN(Cc2ccc(NC(=O)[C@@H]3CCCN3C(=O)[C@H](NC(=O)OC)c3ccccc3)cc2)c2ccccc2)cc1)c1ccccc1` [Example 75, methyl [(1R)-2-{(2S)-2-[(4-{[{-4-[({(2S)-1-[(2R)-2-(diethylamino)-2-phenylacetyl]pyrrolidin-2-yl}carbonyl)amino]benzyl}(phenyl)amino]methyl}phenyl)carbamoyl]pyrrolidin-1-yl}-2-oxo-1-phenylethyl]carbamate] cannot be ordered by EC50: < 1 nM for the first, < 1 nM for the second.

`CN(C)[C@@H](C(=O)N1CCC[C@H]1C(=O)Nc1ccc(CN(Cc2ccc(NC(=O)[C@@H]3CCCN3C(=O)[C@@H](c3ccccc3)N(C)C)cc2)c2ccccc2)cc1)c1ccccc1` [Example 2] and `O=C(Nc1ccc(CN(Cc2ccc(NC(=O)[C@@H]3CCCN3C(=O)[C@H](O)c3ccccc3)cc2)c2ccc(F)cc2)cc1)[C@@H]1CCCN1C(=O)[C@H](O)c1ccccc1` [Example 110, (2S ,2′S)-N,N′-{[(4-fluorophenyl)imino]bis(methanediylbenzene-4,1-diyl)}bis{1-[(2R)-2-hydroxy-2-phenylacetyl]pyrrolidine-2-carboxamide}] cannot be ordered by EC50: < 1 nM for the first, < 1 nM for the second.

`COC(=O)N[C@@H](C(=O)N1CCC[C@H]1C(=O)Nc1ccc(CN(Cc2ccc(NC(=O)[C@@H]3CCCN3C(=O)[C@@H]3CCCO3)cc2)c2ccccc2)cc1)c1ccccc1` [Example 76, methyl {(1R)-2-oxo-1-phenyl-2-[(2S)-2-({4-[(phenyl{4-[({(2S)-1-[(2S)-tetrahydrofuran-2-ylcarbonyl]pyrrolidin-2-yl}carbonyl)amino]benzyl}amino)methyl]phenyl}carbamoyl)pyrrolidin-1-yl]ethyl}carbamate] and `COC(=O)N[C@H](C(=O)N1CCC[C@H]1C(=O)Nc1ccc(CN(Cc2ccc(NC(=O)[C@@H]3CCCN3C(=O)[C@H](NC(=O)OC)c3ccccc3)cc2)c2ccccc2)cc1)C(C)C` [Example 70, N-(methoxycarbonyl)-L-valyl-N-(4-{[{4-[(1-{(2R)-2-[(methoxycarbonyl)amino]-2-phenylacetyl}-L-prolyl)amino]benzyl}(phenyl)amino]methyl}phenyl)-L-prolinamide] cannot be ordered by EC50: < 1 nM for the first, < 1 nM for the second.

`COC(=O)N[C@H](C(=O)N1CCC[C@H]1C(=O)Nc1ccc(CN(Cc2ccc(NC(=O)[C@@H]3CCCN3C(=O)[C@@H](NC(=O)OC)[C@H]3CCOC3)cc2)c2ccc(F)cc2)cc1)[C@H]1CCOC1` [Example 86, dimethyl {[(4-fluorophenyl)imino]bis[methanediylbenzene-4,1-diylcarbamoyl(2 S)pyrrolidine-2,1-diyl{(1S)-2-oxo-1-[(3R)-tetrahydrofuran-3-yl]ethane-2,1-diyl}]}biscarbamate] and `COC(=O)N[C@H](C(=O)N1CCC[C@H]1C(=O)Nc1ccc(CN(Cc2ccc(NC(=O)[C@@H]3CCCN3C(=O)[C@@H](NC(=O)OC)C3CCCCC3)cc2)c2ccc(F)cc2)cc1)C1CCCCC1` [Example 104, dimethyl ([(4-fluorophenyl)imino]bis{methanediylbenzene-4,1-diylcarbamoyl(25)pyrrolidine-2,1-diyl[(1S)-1-cyclohexyl-2-oxoethane-2,1-diyl]})biscarbamate] cannot be ordered by EC50: < 1 nM for the first, < 1 nM for the second.

First: O=C(Nc1ccc(CN(Cc2ccc(NC(=O)[C@@H]3CCCN3C(=O)O[C@H]3CCOC3)cc2)c2ccccc2)cc1)[C@@H]1CCCN1C(=O)O[C@H]1CCOC1 [Example 150, di[(3S)-tetrahydrofuran-3-yl](2S,2′S)-2,2′-[(phenylimino)bis(methanediylbenzene-4,1-diylcarbamoyl)]dipyrrolidine-1-carboxylate]
Second: COC(=O)N[C@H](C(=O)N1CCC[C@H]1C(=O)Nc1ccc(CN(Cc2ccc(NC(=O)[C@@H]3CCCN3C(=O)[C@@H](NC(=O)OC)[C@@H](C)OC)cc2)c2ccccc2)cc1)[C@@H](C)OC [Example 51, dimethyl[(phenylimino)bis{methanediylbenzene-4,1-diylcarbamoyl(2S)pyrrolidine-2,1-diyl[(2S,3R)-3-methoxy-1-oxobutane-1,2-diyl]}]biscarbamate]
The EC50 of the first is higher: 10 to 100 nM for the first, 1 to 10 nM for the second. The second is the more potent here.

Compared with `CCN(CC)[C@@H](C(=O)N1CCC[C@H]1C(=O)Nc1ccc(CN(Cc2ccc(NC(=O)[C@@H]3CCCN3C(=O)[C@@H](NC(=O)OC)C(C)(C)C)cc2)c2ccc(F)cc2)cc1)c1ccccc1` [Example 82, N-(methoxycarbonyl)-3-methyl-L-valyl-N-[4-({[4-({1-[(2R)-2-(diethylamino)-2-phenylacetyl]-L-prolyl}amino)benzyl](4-fluorophenyl)amino}methyl)phenyl]-L-prolinamide], `O=C(Nc1ccc(CN(Cc2ccc(NC(=O)[C@@H]3CCCN3C(=O)C(c3ccccc3)N3CCCC3=O)cc2)c2ccc(F)cc2)cc1)[C@@H]1CCCN1C(=O)C(c1ccccc1)N1CCCC1=O` (single isomer, unassigned) [Example 129, (2S ,2′S)-N,N′-{[(4-fluorophenyl)imino]bis(methanediylbenzene-4,1-diyl)}bis{1-[(2-oxopyrrolidin-1-yl)(phenyl)acetyl]pyrrolidine-2-carboxamide}] is higher in EC50: < 1 nM for the first, 1 to 10 nM for the second. The first is the more potent here.
